These results are taken from patent US20080125424A1, “Derivatives of urea and related diamines, methods for their manufacture, and uses therefor” (priority 2006, published 2008).

One experiment concerns the target T1, Human Ca2+ receptor (Homo sapiens, UniProt P41180).
T1 construct: expressed in transfected cells
T1 sequence (P41180 20-1078): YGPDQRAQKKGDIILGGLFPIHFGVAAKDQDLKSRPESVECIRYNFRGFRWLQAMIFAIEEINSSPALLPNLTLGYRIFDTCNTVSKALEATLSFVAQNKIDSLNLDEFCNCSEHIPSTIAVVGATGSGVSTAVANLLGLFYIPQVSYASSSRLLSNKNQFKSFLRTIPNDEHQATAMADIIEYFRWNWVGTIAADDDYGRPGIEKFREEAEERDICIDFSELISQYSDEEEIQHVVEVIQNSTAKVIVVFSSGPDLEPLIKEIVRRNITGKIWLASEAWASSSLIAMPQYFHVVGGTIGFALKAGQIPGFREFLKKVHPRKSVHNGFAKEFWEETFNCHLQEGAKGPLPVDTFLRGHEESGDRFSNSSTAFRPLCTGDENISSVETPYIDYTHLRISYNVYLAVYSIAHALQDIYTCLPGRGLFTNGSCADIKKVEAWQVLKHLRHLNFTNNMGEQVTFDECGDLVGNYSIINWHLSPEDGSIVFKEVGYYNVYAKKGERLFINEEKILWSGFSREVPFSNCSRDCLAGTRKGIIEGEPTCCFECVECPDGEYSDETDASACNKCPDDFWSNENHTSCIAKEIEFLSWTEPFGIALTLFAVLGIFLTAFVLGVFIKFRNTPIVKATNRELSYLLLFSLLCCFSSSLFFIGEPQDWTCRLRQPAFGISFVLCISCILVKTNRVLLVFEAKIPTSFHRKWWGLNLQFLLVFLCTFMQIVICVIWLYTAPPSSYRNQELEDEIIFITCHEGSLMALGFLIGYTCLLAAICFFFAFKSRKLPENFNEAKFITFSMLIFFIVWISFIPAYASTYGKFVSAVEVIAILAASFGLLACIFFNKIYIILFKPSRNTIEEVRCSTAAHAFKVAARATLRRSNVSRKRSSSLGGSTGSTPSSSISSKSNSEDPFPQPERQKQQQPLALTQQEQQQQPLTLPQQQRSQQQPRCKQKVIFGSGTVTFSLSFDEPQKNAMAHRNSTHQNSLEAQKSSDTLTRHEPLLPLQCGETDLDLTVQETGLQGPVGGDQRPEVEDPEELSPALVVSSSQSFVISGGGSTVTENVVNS
Nature of the experiment: Luciferase reporter assay in CHO cells (ET8-5-5) transfected with human Ca2+ receptor. It is filed as cell-based. The note with it: CHO ET8-5-5 cells, 5 h incubation with test compound. Here is the method: The activities of the compounds of the present invention on calcium receptors were measured in accordance with the method described hereinbelow.
Human Ca^2+ receptor cDNA was subcloned into the mammalian expression vector PECE as described in Ellis, L et al. (1986) Cell vol. 45, 721-732. The luciferase reporter was subcloned into the mammalian expression vector pGL3basic (Promega). Resistance to neomycin (pSV2-neo) and resistance to puromycin (pSG5-puro) were used as selection markers. All these plasmids were simultaneously transfected into CHO cells by calcium phosphate precipitation. Transfected cells were grown in F12 medium containing 7.5% foetal bovine serum, 100 U/ml penicillin and 100 μg/ml streptomycin (as 1% Pen-Strep, BioWithaker), neomycin (750 μg/ml) and puromycin (5 μg/ml). Neomycin and puromycin resistant colonies were subcloned and assayed for activation against a range of calcium concentration. Clone 8-5-5 was used to assess the effects of compounds on [Ca^2+]i. This stably transfected cell line was termed ET8-5-5.
For measurements of [Ca^2+]i, the cells were recovered from tissue culture flasks by brief treatment with Trypsin-EDTA (Invitrogen; containing 0.53 mM EDTA.4Na in HBSS) and then seeded in culture-treated 96-well plates (Greiner) at 50 k cells per well in the growth media (same as above, except neomycin 400 μg/ml). Cells were grown in 37° C. TC incubator for 24 h. The culture medium was then removed and replaced with F12 medium, 1% Pen-Strep for an overnight foetal bovine serum starvation in 37° C. TC incubator. Then the starvation medium was removed and replaced with a test buffer (20 mM HEPES pH 7.4, 125 mM NaCl, 5 mM KCl, 1 mM MgCl2, 5.5 mM Glucose, 2 g/l lysosyme and 0.3 mM CaCl2) supplemented with a range of test compound concentrations crossed against a super-added range of CaCl2 concentrations. The cells were incubated with the test compounds for 5 h in 37° C. TC incubator. Then the test buffer was discarded, and cells were added with the substrate for Luciferase from SteadyLite Kit (Perkin-Elmer). The luminescence was recorded.
The term EC50 denotes the midpoint of the concentration-response curve. A low value points to an effect from little substance. In turn, `O=C(O)CCCN(CCC(c1ccccc1)c1ccccc1)C(=O)Nc1cccc(C(=O)O)c1` [Example 65, 3-[3-(3-carboxy-propyl)-3-(3,3-diphenyl-propyl)-ureido]-benzoic acid] had an EC50 of 1000 to 10000 nM.

`O=C(Nc1nc2ccccc2s1)N(CCNS(=O)(=O)c1ccc(C(F)(F)F)cc1)CCC(c1ccccc1)c1ccccc1` [Example 173, N-{2-[3-Benzothiazol-2-yl-1-(3,3-diphenylpropyl)-ureido]-ethyl}-4-trifluoromethyl-benzenesulfonamide] registered an EC50 of 100 to 1000 nM.

On to `COC(=O)c1cccc(NC(=O)N(CCC(c2ccccc2)c2ccccc2)CC(=O)OC(C)(C)C)c1` [Example 63, 3-[3-tert-butoxycarbonylmethyl-3-(3,3-diphenyl-propyl)-ureido]-benzoic acid methyl ester], for which the EC50 fell in the range of 100 to 1000 nM.

For the molecule `O=C(O)CN(CCC(c1ccccc1)c1ccccc1)C(=O)Nc1cccc(C(=O)O)c1` [Example 66, 3-[3-carboxymethyl-3-(3,3-diphenyl-propyl)-ureido]-benzoic acid], the EC50 fell in the range of 1000 to 10000 nM.

Turning to `COC(=O)c1ccccc1S(=O)(=O)NCCN(CCC(c1ccccc1)c1ccccc1)C(=O)Nc1nc2ccccc2s1` [Example 171, 2-{2-[3-Benzothiazol-2-yl-1-(3,3-diphenyl-propyl)-ureido]-ethylsulfamoyl}-benzoic acid methyl ester], the 50% effective concentration (EC50) fell in the range of 100 to 1000 nM.

For `CCOC(=O)CCCN(CCC(c1ccccc1)c1ccccc1)C(=O)Nc1cccc(C(=O)OC)c1` [Example 64, 3-[3-(3,3-diphenyl-propyl)-3-(3-ethoxycarbonyl-propyl)-ureido]-benzoic acid methyl ester], the EC50 was < 100 nM.

For `COc1ccc(S(=O)(=O)NCCN(CCC(c2ccccc2)c2ccccc2)C(=O)Nc2nc3ccccc3s2)cc1` [Example 172, N-{2-[3-Benzothiazol-2-yl-1-(3,3-diphenylpropyl)-ureido]-ethyl}-4-methoxybenzenesulfonamide], the EC50 lay in the range of 100 to 1000 nM.

The next experiment has as its target T2, human parathyroid cell Ca2+ receptor (hPCaR) (Homo sapiens, UniProt P41180).
T2 construct: expressed in transfected cells
T2 sequence (P41180 20-1078): T1 sequence (P41180 20-1078)
Nature of the experiment: [Ca2+]i fluorescence assay in HEK 293 4.0-7 cells expressing hPCaR. Particulars: buffer with 1 mM CaCl2. Format: cell-based. The essentials: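 HEK 293 clone 4.0-7 stably expressing human parathyroid Ca2+ receptor, seeded overnight, then loaded 90 min at room temperature with calcium dye in parathyroid cell buffer (pH 7.45) with 0.5% BSA and 1 mM CaCl2. Fluorescence after compound addition read at ex 485/em 530 nm.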
Regarding `CS(=O)(=O)Nc1ccc(-c2csc(NC(=O)N(CCC(N)=O)CCC(c3ccccc3)c3ccccc3)n2)cc1` [Example 77, 1-(3-amino-3-oxopropyl)-1-(3,3-diphenylpropyl)-3-(4-(4-(methylsulfonamido)phenyl)thiazol-2-yl)urea], the EC50 was < 100 nM.

Regarding `CS(=O)(=O)Nc1ccc(-c2nc(NC(=O)N(CCN)CCC(c3ccccc3)c3ccccc3)sc2Cl)cc1` [Example 135, 1-(2-aminoethyl)-3-(5-chloro-4-(4-(methylsulfonamido)phenyl)thiazol-2-yl)-1-(3,3-diphenylpropyl)urea], the EC50 was < 100 nM.

Turning to `O=C(NCCN(CCC(c1ccccc1)c1ccccc1)C(=O)Nc1nc2ccccc2s1)C1CCNCC1` [Example 166, Piperidine-4-carboxylic acid {2-[3-benzothiazol-2-yl-1-(3,3-diphenyl-propyl)-ureido]-ethyl}-amide], the EC50 is < 100 nM.
